Assay results taken from patent US20210308028A1, “Compositions and Methods for Maintaining and Protecting Tissue Integrity and Barrier Function” (Colgate-Palmolive Company, priority 2020, published 2021).

Experiments:
[1] = system: B11 immortalized human gingival keratinocyte cell line; assay: Transepithelial electrical resistance (TER) of gingival keratinocyte barrier; assay type: cell-based; conditions: no challenge; dilutions 1/500, 1/1000, 1/2000 or 0.025-0.2%; multiple time points; FIGS. 6, 9, 12
Method: (§1) Tight junction integrity was assessed by determining the trans-epithelial electrical resistance (TER). B11 gingival keratinocytes were seeded onto Costar™ Transwell™ clear polyester membrane inserts (6.5-mm diameter; 0.4-μm pore size; Corning Co., Cambridge, Mass., USA) at 3×10^5 cells per insert. The basolateral and apical compartments were filled with 0.6 mL and 0.1 mL of complete K-SFM, respectively. Following a 72-h incubation, the conditioned medium was replaced with antibiotic-free K-SFM, and the cells were incubated for a further 16 h. The TER values were measured using an Ohm/voltmeter (EVOM2; World Precision Instruments, Sarasota, Fla., USA) at 0, 4, 8, 24, 48, and 72 h. Resistance values were calculated in Ohms (Ω)/cm 2 by multiplying the resistance values by the filter surface area. Results were expressed as percentage of the basal control values measured at time 0 h (100% values) for each condition.

[2] = system: B11 gingival keratinocytes challenged with P. gingivalis; assay: Paracellular permeability to FITC-dextran with P. gingivalis challenge; assay type: cell-based, human; conditions: P. gingivalis MOI=10^4; over 48 h; FIGS. 16, 19, 22
Method: (§2) The ability of test composition samples to enhance epithelial barrier integrity was assessed by monitoring the paracellular transport of FITC-conjugated 4.4-kDa dextran (FD-4; Sigma-Aldrich Canada Ltd.) across the keratinocyte layer. Briefly, B11 cells were cultured on Transwell filters, and FD-4 ([…] in culture medium) was added in the apical compartment in the presence of the test composition under investigation. Fluorescence in the basolateral compartment was measured at 0, 4, 8, 24, and 48 h using a Synergy 2 microplate reader (BioTek Instrument, Winooski, Vt., USA).
Briefly, B11 cells were cultured on Transwell™ filters, and FD-4 (1 mg/mL in culture medium) was added to the apical compartment in the presence of the test compounds. The presence of FD-4 in the basolateral compartment was determined at 0, 2, 6, 24, and 48 h by measuring the fluorescence (RUF; excitation wavelength 495 nm; emission wavelength 525 nm) using a Synergy 2 microplate reader.

[3] = system: B11 gingival keratinocytes challenged with P. gingivalis; assay type: cell-based, human; conditions: P. gingivalis MOI=10^4; Example 4, FIGS. 15, 18, 21
Method: as §1

[4] = system: B11 gingival keratinocytes treated with TNF-α; assay: FITC-dextran paracellular transport with TNF-α challenge; assay type: cell-based, human; conditions: Example 5, FIGS. 25, 28, 31, 32; S1: the two higher percentages
Method: as §2
(§3) Assays exposed cells to either TNFα only or TNFα+test composition. TNFα is known to cause tissue damage. A stock solution of recombinant TNF-α is prepared in sterile distilled water at 100 μg/ml. Thereafter, dilutions are made in keratinocyte culture medium. First dilution is 1/1000 to obtain 100 ng/ml. TNF-α and the test compounds are added simultaneously.
Gingival keratinocytes were cultured in the apical chamber of Transwell™ inserts as described above. Immediately after adding fluorescein isothiocyanate-conjugated dextran of 4.4 kDa (FD-4; 1 mg/ml in culture medium) to the apical compartment, the formulations under investigation were added in presence of recombinant TNF-α (100 ng/ml). Fluorescence in the basolateral compartment was recorded after 0, 2, 6, 24, and 48 h of incubation using a Synergy 2 microplate reader (BioTek Instruments; Winooski, Vt., USA).

[5] = system: zonula occludens-1 and occludin in gingival keratinocytes challenged with P. gingivalis; assay: Immunofluorescence of tight junction proteins with P. gingivalis challenge; assay type: cell-based, human; conditions: Example 4, FIGS. 17, 20, 23
Method: Gingival keratinocytes treated as described above for 12 h were immunostained for zonula occludens-1 and occludin, two tight junction proteins. Briefly, the cells were fixed in 50 mM phosphate-buffered saline (pH 7.2) (PBS) containing 4% paraformaldhehyde for 20 min, permeabilized with 0.1% Triton X-100 for 10 min, and blocked in 3% non-fat milk in 20 mM Tris-HCl (pH 8), 150 mM NaCl, and 0.5% Tween 20 for 40 min. The cells were incubated with 2.5 μg/mL of either occludin antibody-Alexa Fluor® 488 conjugate or ZO-1 antibody-Alexa Fluor® 594 conjugate in blocking buffer overnight at 4° C. After washing with PBS, the cells were then treated with ProLong® Diamond antifade (Life Technologies). The slides were sealed with nail polish and were kept in the dark at 4° C. The localization of tight junction proteins in B11 cells was visualized using an Olympus FSX100 fluorescence microscope and FSX-BSW imaging software (Olympus, Tokyo, Japan). Immunofluorescent staining of tight junction proteins is a qualitative assay.
The gingival epithelium, a stratified squamous tissue that acts as an interface between the external environment and the underlying connective tissue, plays an active role in maintaining oral health. […] The capability of test compositions to protect oral tissue from perio-pathogenic bacteria caused tissue damage was assessed using the methodology set out in Example 2. […]

[6] = system: B11 gingival keratinocytes treated with TNF-α; assay: TER with TNF-α challenge; assay type: cell-based, human; conditions: Example 5, FIGS. 24, 27, 29, 30
Method: as §1, §3
Keratinocyte barrier integrity was determined by monitoring transepithelial electrical resistance (TER). Briefly, keratinocytes (3×10^5 cells per insert; 0.1 ml) were seeded in the apical compartment of Costar™ Transwell™ clear polyester membrane inserts (6.5 mm in diameter, 0.4 μm pore size; Corning Co., Cambridge, Mass., USA), while the basolateral compartment was filled with 0.6 ml of culture medium. After 72-h of incubation, the conditioned culture medium was replaced with fresh antibiotic-free K-SFM, and the cells were further incubated for 16 h prior treating the cells. Recombinant human TNF-α (100 ng/ml; AnaSpec, Fremont, USA) and the formulations (final dilutions of 1/500, 1/1000, and 1/2000 (v/v for the aqueous solution; w/v for the dentifrice) under investigation were added to the apical compartment. The TER values were monitored using an ohm/voltmeter (EVOM^2; World Precision Instruments, Sarasota, Fla., USA) after 0, 6, 24, and 48 h of incubation. The TER values in Ohms (Ω)/cm^2 were determined by multiplying the resistance values by the surface area of the membrane filter. Results are expressed as the percentage of the basal control value measured at time 0-h (100% value).

SMILES	TER measured as a percent of the initial value [1]	paracellular permeability to FITC-dextran with P. gingivalis [2]	TER with P. gingivalis challenge [3]	TNFα-induced paracellular permeability to FITC-dextran [4]	immunofluorescence of tight junction proteins with P. gingivalis [5]	TER with TNFα challenge [6]
O=C([O-])CC(O)(CC(=O)[O-])C(=O)[O-].O=C([O-])CC(O)(CC(=O)[O-])C(=O)[O-].[Zn+2].[Zn+2].[Zn+2] [zinc citrate]	increase in TER values with the increase in sample concentration	decreased with the increase in concentration of zinc citrate	protects tissue integrity from damage by P. gingivalis	protects oral tissue integrity from the deleterious effects caused by the presence of TNFα	protects barrier integrity from the deleterious effects caused by the presence of P. gingivalis	can prevent tissue from the TNFα induced TER decrease
[O]=[Zn] [zinc oxide]	increase in TER values with the increase in sample concentration	decreased with the increase in concentration of zinc oxide	protects tissue integrity from damage by P. gingivalis	protects oral tissue integrity from the deleterious effects caused by the presence of TNFα	protects barrier integrity from the deleterious effects caused by the presence of P. gingivalis	prevented tissue from the TNFα induced TER decrease
